{"source": "ChEMBL document CHEMBL1201862", "about": "“PubChem BioAssay data set” (2004)", "assay_in_all_cases": "NCI tumour cell line growth inhibition, 48 h", "key": {"EKVX": {"system": "EKVX"}, "HCT-116": {"system": "HCT-116"}, "OVCAR-5": {"system": "OVCAR-5"}, "SK-MEL-2": {"system": "SK-MEL-2"}, "KM12": {"system": "KM12"}, "DU-145": {"system": "DU-145"}, "IGROV-1": {"system": "IGROV-1"}, "SF-268": {"system": "SF-268"}, "ACHN": {"system": "ACHN"}, "NCI-H226": {"system": "NCI-H226"}, "NCI-H460": {"system": "NCI-H460"}, "UO-31": {"system": "UO-31"}, "OVCAR-3": {"system": "OVCAR-3"}, "CCRF-CEM": {"system": "CCRF-CEM"}, "U-251": {"system": "U-251"}, "HCT-15": {"system": "HCT-15"}, "786-0": {"system": "786-0"}, "SR": {"system": "SR"}, "OVCAR-8": {"system": "OVCAR-8"}, "SNB-75": {"system": "SNB-75"}}, "note": "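Five compound concentrations were applied to cells in 96-well plates for 48 hours; endpoints were derived by simple linear interpolation of the resulting dose-response curve. Abbreviation: GI50, concentration required for 50% inhibition of growth.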 Active and inactive are the calls of the source. Rule as the data show it: active = GI50 up to about 1.1 µM and inactive = higher. Residues, ends and D or L forms follow the SMILES beside them. *: point of attachment. Cbz = O=C(OCc1ccccc1)*", "data": [{"smiles": "CCOC(=O)/C=C/C1=C(Br)[C@@]2(C)CC[C@@H]3c4ccc(O)cc4CC[C@H]3[C@@H]2C1", "values": [{"measurement": "GI50", "setting": "EKVX", "result": "17.1 µM (inactive)"}, {"measurement": "GI50", "setting": "HCT-116", "result": "13.7 µM (inactive)"}, {"measurement": "GI50", "setting": "OVCAR-5", "result": "15.2 µM (inactive)"}, {"measurement": "GI50", "setting": "SK-MEL-2", "result": "14.9 µM (inactive)"}, {"measurement": "GI50", "setting": "KM12", "result": "16.2 µM (inactive)"}, {"measurement": "GI50", "setting": "DU-145", "result": "6.87 µM (inactive)"}, {"measurement": "GI50", "setting": "IGROV-1", "result": "12.2 µM (inactive)"}, {"measurement": "GI50", "setting": "SF-268", "result": "19 µM (inactive)"}, {"measurement": "GI50", "setting": "ACHN", "result": "15.7 µM (inactive)"}, {"measurement": "GI50", "setting": "NCI-H226", "result": "15.2 µM (inactive)"}, {"measurement": "GI50", "setting": "NCI-H460", "result": "14.7 µM (inactive)"}, {"measurement": "GI50", "setting": "UO-31", "result": "16.8 µM (inactive)"}, {"measurement": "GI50", "setting": "OVCAR-3", "result": "7.94 µM (inactive)"}, {"measurement": "GI50", "setting": "CCRF-CEM", "result": "7.83 µM (inactive)"}, {"measurement": "GI50", "setting": "U-251", "result": "16.6 µM (inactive)"}, {"measurement": "GI50", "setting": "HCT-15", "result": 12.1, "unit": "µM"}, {"measurement": "GI50", "setting": "786-0", "result": "12.8 µM (inactive)"}, {"measurement": "GI50", "setting": "SR", "result": "7.03 µM (inactive)"}]}, {"smiles": "O=[N+]([O-])c1ccc(N/N=C(\\c2ccccc2)c2ccccn2)nc1", "values": [{"measurement": "GI50", "setting": "EKVX", "result": "0.171 µM (active)"}, {"measurement": "GI50", "setting": "HCT-116", "result": "0.21 µM (active)"}, {"measurement": "GI50", "setting": "OVCAR-5", "result": "14.4 µM (inactive)"}, {"measurement": "GI50", "setting": "SK-MEL-2", "result": "14.8 µM (inactive)"}, {"measurement": "GI50", "setting": "KM12", "result": "6.62 µM (inactive)"}, {"measurement": "GI50", "setting": "DU-145", "result": "5.53 µM (inactive)"}, {"measurement": "GI50", "setting": "IGROV-1", "result": "1.11 µM (active)"}, {"measurement": "GI50", "setting": "SF-268", "result": "2.51 µM (inactive)"}, {"measurement": "GI50", "setting": "OVCAR-8", "result": "0.914 µM (active)"}, {"measurement": "GI50", "setting": "ACHN", "result": "0.0785 µM (active)"}, {"measurement": "GI50", "setting": "NCI-H460", "result": "0.957 µM (active)"}, {"measurement": "GI50", "setting": "UO-31", "result": "0.817 µM (active)"}, {"measurement": "GI50", "setting": "OVCAR-3", "result": "0.409 µM (active)"}, {"measurement": "GI50", "setting": "CCRF-CEM", "result": "< 0.0218 µM (active)"}, {"measurement": "GI50", "setting": "U-251", "result": "1.26 µM (inactive)"}, {"measurement": "GI50", "setting": "HCT-15", "result": 0.151, "unit": "µM"}, {"measurement": "GI50", "setting": "786-0", "result": "0.906 µM (active)"}, {"measurement": "GI50", "setting": "SR", "result": "1.48 µM (inactive)"}, {"measurement": "GI50", "setting": "SNB-75", "result": "7.06 µM (inactive)"}]}, {"smiles": "CC(Cc1ccccc1)N(C)Cc1nc(C2CCC([N+](=O)[O-])O2)no1", "note": "(configuration not stated)", "values": [{"measurement": "GI50", "setting": "EKVX", "result": "28.4 µM (inactive)"}, {"measurement": "GI50", "setting": "HCT-116", "result": "7.29 µM (inactive)"}, {"measurement": "GI50", "setting": "OVCAR-5", "result": "15.6 µM (inactive)"}, {"measurement": "GI50", "setting": "KM12", "result": "4.55 µM (inactive)"}, {"measurement": "GI50", "setting": "DU-145", "result": "12.4 µM (inactive)"}, {"measurement": "GI50", "setting": "IGROV-1", "result": "8.55 µM (inactive)"}, {"measurement": "GI50", "setting": "SF-268", "result": "28.1 µM (inactive)"}, {"measurement": "GI50", "setting": "OVCAR-8", "result": "12.7 µM (inactive)"}, {"measurement": "GI50", "setting": "NCI-H226", "result": "16.9 µM (inactive)"}, {"measurement": "GI50", "setting": "UO-31", "result": "7.29 µM (inactive)"}, {"measurement": "GI50", "setting": "CCRF-CEM", "result": "12.2 µM (inactive)"}, {"measurement": "GI50", "setting": "U-251", "result": "10.2 µM (inactive)"}, {"measurement": "GI50", "setting": "HCT-15", "result": 2.17, "unit": "µM"}, {"measurement": "GI50", "setting": "786-0", "result": "11.9 µM (inactive)"}, {"measurement": "GI50", "setting": "SR", "result": "16.7 µM (inactive)"}, {"measurement": "GI50", "setting": "SNB-75", "result": "10.3 µM (inactive)"}]}, {"smiles": "CCOc1ccc2ccccc2c1NC1=NCCO1", "values": [{"measurement": "GI50", "setting": "EKVX", "result": "60.8 µM (inactive)"}, {"measurement": "GI50", "setting": "HCT-116", "result": "36.9 µM (inactive)"}, {"measurement": "GI50", "setting": "OVCAR-5", "result": "> 100 µM (inactive)"}, {"measurement": "GI50", "setting": "KM12", "result": "24.9 µM (inactive)"}, {"measurement": "GI50", "setting": "DU-145", "result": "> 100 µM (inactive)"}, {"measurement": "GI50", "setting": "IGROV-1", "result": "33.9 µM (inactive)"}, {"measurement": "GI50", "setting": "SF-268", "result": "> 100 µM (inactive)"}, {"measurement": "GI50", "setting": "OVCAR-8", "result": "74.6 µM (inactive)"}, {"measurement": "GI50", "setting": "ACHN", "result": "20.6 µM (inactive)"}, {"measurement": "GI50", "setting": "NCI-H226", "result": "25.7 µM (inactive)"}, {"measurement": "GI50", "setting": "NCI-H460", "result": "12.7 µM (inactive)"}, {"measurement": "GI50", "setting": "UO-31", "result": "21 µM (inactive)"}, {"measurement": "GI50", "setting": "CCRF-CEM", "result": "39.1 µM (inactive)"}, {"measurement": "GI50", "setting": "U-251", "result": "45.3 µM (inactive)"}, {"measurement": "GI50", "setting": "HCT-15", "result": "> 100", "unit": "µM"}, {"measurement": "GI50", "setting": "786-0", "result": "> 100 µM (inactive)"}, {"measurement": "GI50", "setting": "SR", "result": "31.5 µM (inactive)"}, {"measurement": "GI50", "setting": "SNB-75", "result": "34.6 µM (inactive)"}]}, {"smiles": "O=c1c2ccc(Cl)cc2oc2c(CNc3ccc(S(=O)(=O)Nc4nccs4)cc3)cccc12", "values": [{"measurement": "GI50", "setting": "EKVX", "result": "> 100 µM (inactive)"}, {"measurement": "GI50", "setting": "HCT-116", "result": "> 100 µM (inactive)"}, {"measurement": "GI50", "setting": "OVCAR-5", "result": "> 100 µM (inactive)"}, {"measurement": "GI50", "setting": "SK-MEL-2", "result": "> 100 µM (inactive)"}, {"measurement": "GI50", "setting": "KM12", "result": "> 100 µM (inactive)"}, {"measurement": "GI50", "setting": "DU-145", "result": "> 100 µM (inactive)"}, {"measurement": "GI50", "setting": "IGROV-1", "result": "> 100 µM (inactive)"}, {"measurement": "GI50", "setting": "SF-268", "result": "> 100 µM (inactive)"}, {"measurement": "GI50", "setting": "OVCAR-8", "result": "> 100 µM (inactive)"}, {"measurement": "GI50", "setting": "ACHN", "result": "> 100 µM (inactive)"}, {"measurement": "GI50", "setting": "NCI-H226", "result": "> 100 µM (inactive)"}, {"measurement": "GI50", "setting": "UO-31", "result": "> 100 µM (inactive)"}, {"measurement": "GI50", "setting": "OVCAR-3", "result": "> 100 µM (inactive)"}, {"measurement": "GI50", "setting": "CCRF-CEM", "result": "91.6 µM (inactive)"}, {"measurement": "GI50", "setting": "U-251", "result": "> 100 µM (inactive)"}, {"measurement": "GI50", "setting": "HCT-15", "result": "> 100", "unit": "µM"}, {"measurement": "GI50", "setting": "786-0", "result": "> 100 µM (inactive)"}, {"measurement": "GI50", "setting": "SR", "result": "> 100 µM (inactive)"}]}, {"smiles": "CC(NC(=O)C(NC(=O)OCc1ccccc1)C(C)C)C(=O)NCC(=O)O", "note": "(stereo not drawn) (Cbz-Val-Ala-Gly-OH; configuration not given here)", "values": [{"measurement": "GI50", "setting": "EKVX", "result": "> 100 µM (inactive)"}, {"measurement": "GI50", "setting": "HCT-116", "result": "> 100 µM (inactive)"}, {"measurement": "GI50", "setting": "OVCAR-5", "result": "> 100 µM (inactive)"}, {"measurement": "GI50", "setting": "SK-MEL-2", "result": "> 100 µM (inactive)"}, {"measurement": "GI50", "setting": "KM12", "result": "> 100 µM (inactive)"}, {"measurement": "GI50", "setting": "DU-145", "result": "> 100 µM (inactive)"}, {"measurement": "GI50", "setting": "IGROV-1", "result": "> 100 µM (inactive)"}, {"measurement": "GI50", "setting": "SF-268", "result": "> 100 µM (inactive)"}, {"measurement": "GI50", "setting": "OVCAR-8", "result": "> 100 µM (inactive)"}, {"measurement": "GI50", "setting": "ACHN", "result": "> 100 µM (inactive)"}, {"measurement": "GI50", "setting": "NCI-H226", "result": "> 100 µM (inactive)"}, {"measurement": "GI50", "setting": "NCI-H460", "result": "> 100 µM (inactive)"}, {"measurement": "GI50", "setting": "UO-31", "result": "> 100 µM (inactive)"}, {"measurement": "GI50", "setting": "OVCAR-3", "result": "> 100 µM (inactive)"}, {"measurement": "GI50", "setting": "U-251", "result": "> 100 µM (inactive)"}, {"measurement": "GI50", "setting": "HCT-15", "result": "> 100", "unit": "µM"}, {"measurement": "GI50", "setting": "786-0", "result": "> 100 µM (inactive)"}, {"measurement": "GI50", "setting": "SR", "result": "> 100 µM (inactive)"}]}]}
